In paper PMC4280904 (Journal of Veterinary Pharmacology and Therapeutics, 2014):

Columns and labels:
Set-up in all cases: species or system Wistar rats
CYP1A = assay: In vivo enzyme induction: ethylresorufin O-deethylase; details: rats
CYP2A = assay: In vivo enzyme induction: ethoxycoumarin O-deethylase; details: rats
CYP2B = assay: In vivo enzyme induction: pentylresorufin O-depentylase; details: rats
CYP3A = assay: In vivo enzyme induction: erythromycin N-demethylase; details: rats, 40 mg/kg p.o. once daily 7 days
NAT2 = assay: In vivo enzyme induction: N-acetyltransferase, procainamide; details: rats, 20 mg/kg i.p. once daily 7 days
[1] = 40 mg/kg i.p. once daily 7 days
[2] = 40 mg/kg p.o. once daily 7 days

**Q.** `O=c1cc(-c2ccccc2)oc2ccc3ccccc3c12` [β-naphthoflavone] was tested. Which “CYP1A enzyme activity relative to control” value (CYP1A; [1]) did it give?
**A.** 25.1 fold

**Q.** What about the “CYP2A enzyme activity relative to control” value (CYP2A; [1]) of the same compound?
**A.** 15.8 fold

**Q.** What about the “CYP2B enzyme activity relative to control” value (CYP2B; [1]) of the same compound?
**A.** 3.8 fold

**Q.** Which results are given for `CCC1(c2ccccc2)C(=O)NC(=O)NC1=O` [Phenobarbital, phenobarbital]?
**A.** CYP1A enzyme activity relative to control (CYP1A; [2]): 5.5 fold; CYP2A enzyme activity relative to control (CYP2A; [2]): 2.6 fold; CYP2B enzyme activity relative to control (CYP2B; [2]): 17.7 fold; CYP3A enzyme activity relative to control (CYP3A): 3.5 fold

**Q.** How did the “NAT2 activity compared with untreated controls” value (NAT2) turn out when `C[C@@H]1C[C@H]2[C@@H]3CCC4=CC(=O)C=C[C@]4(C)[C@@]3(F)[C@@H](O)C[C@]2(C)[C@@]1(O)C(=O)CO` [Dexamethasone, dexamethasone, reference compound] was run?
**A.** 1.8 fold
